Among the data in patent US8618289B2 (Ambit Biosciences Corporation, priority 2008, dated 2013) are Kd, IC50 and EC50 values, retold here.

Assay [1] concerns the target RAF kinases (Homo sapiens, UniProt P15056). Put plainly: biochemical.
Assay [2] deals with RAF kinases (Homo sapiens, UniProt P04049). Put plainly: biochemical.
Assay [3] concerns the target RAF kinases (Homo sapiens, UniProt P15056, V600E). In words: biochemical.
Assay [4] concerns MEK1 phosphorylation in the A375 human melanoma cell line. In words: cells. The settings on record: A-375, read-out: pMEK IC50.
In the next assay the test system is A375 cells. In words: cells. The settings on record: Homo sapiens, A-375, read-out: A375 Viability EC50.

As usually defined, the Kd is the equilibrium constant for the complex coming apart. Read a high Kd as a looser complex. For orientation: IC50 means the concentration that inhibits the measured activity by half. Broadly, the EC50 is the concentration that produces a half-maximal response.

A value given as a limit tells only on which side of the number the result lay.

RAF kinases (Homo sapiens, UniProt P15056, V600E), sequence (P15056 whole entry V600E): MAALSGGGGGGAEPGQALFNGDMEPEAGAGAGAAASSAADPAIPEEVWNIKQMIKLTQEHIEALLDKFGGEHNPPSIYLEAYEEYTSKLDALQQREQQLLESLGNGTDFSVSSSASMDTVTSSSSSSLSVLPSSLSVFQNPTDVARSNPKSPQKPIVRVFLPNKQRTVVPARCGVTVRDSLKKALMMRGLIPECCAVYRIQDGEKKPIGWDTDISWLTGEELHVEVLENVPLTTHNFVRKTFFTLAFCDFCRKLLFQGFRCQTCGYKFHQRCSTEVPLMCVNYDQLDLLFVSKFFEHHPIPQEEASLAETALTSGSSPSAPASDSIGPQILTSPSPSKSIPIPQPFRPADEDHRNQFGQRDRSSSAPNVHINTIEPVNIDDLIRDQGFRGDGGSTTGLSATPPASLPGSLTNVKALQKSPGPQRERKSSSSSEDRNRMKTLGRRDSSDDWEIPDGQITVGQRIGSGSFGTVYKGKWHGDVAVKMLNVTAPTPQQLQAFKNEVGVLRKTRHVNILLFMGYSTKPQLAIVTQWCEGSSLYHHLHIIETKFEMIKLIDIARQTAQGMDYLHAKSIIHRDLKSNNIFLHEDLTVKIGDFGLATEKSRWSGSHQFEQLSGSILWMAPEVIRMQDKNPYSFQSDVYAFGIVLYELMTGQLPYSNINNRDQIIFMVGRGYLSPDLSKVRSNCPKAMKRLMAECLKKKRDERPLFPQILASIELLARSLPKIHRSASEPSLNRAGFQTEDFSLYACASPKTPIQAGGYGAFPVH
RAF kinases (Homo sapiens, UniProt P15056), sequence (P15056 whole entry): as the sequence (P15056 whole entry V600E) above, with E600V counted along it
RAF kinases (Homo sapiens, UniProt P04049), sequence (P04049 whole entry): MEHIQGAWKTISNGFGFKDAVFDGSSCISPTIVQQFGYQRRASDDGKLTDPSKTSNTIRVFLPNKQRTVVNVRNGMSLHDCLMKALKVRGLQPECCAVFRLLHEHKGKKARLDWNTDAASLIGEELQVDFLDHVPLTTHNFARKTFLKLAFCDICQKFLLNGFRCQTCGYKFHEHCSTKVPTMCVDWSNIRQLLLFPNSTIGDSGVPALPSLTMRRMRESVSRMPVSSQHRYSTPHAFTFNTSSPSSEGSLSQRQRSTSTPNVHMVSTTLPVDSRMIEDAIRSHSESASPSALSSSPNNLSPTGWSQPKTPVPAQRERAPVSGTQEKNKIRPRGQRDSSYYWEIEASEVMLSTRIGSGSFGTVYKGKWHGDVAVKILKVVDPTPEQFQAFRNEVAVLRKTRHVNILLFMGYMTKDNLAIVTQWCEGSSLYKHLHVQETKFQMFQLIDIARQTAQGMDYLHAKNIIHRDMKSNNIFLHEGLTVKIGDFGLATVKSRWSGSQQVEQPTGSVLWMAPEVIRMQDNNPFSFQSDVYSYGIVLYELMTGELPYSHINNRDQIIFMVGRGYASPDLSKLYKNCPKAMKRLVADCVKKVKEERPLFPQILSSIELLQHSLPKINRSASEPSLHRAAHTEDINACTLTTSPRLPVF

Consider `COCCOc1cc2ncnc(Sc3cccc(NC(=O)Nc4cc(C(C)(C)C)nn4-c4ccc(C)cc4)c3)c2cc1OC` [Ex 277, 1-(3-tert-butyl-1-p-tolyl-1H-pyrazol-5-yl)-3-(3-(6-methoxy-7-(2-methoxyethoxy)quinazolin-4-ylthio)phenyl)urea], for which the Kd was more than 1000 nM at RAF kinases [1], more than 1000 nM at RAF kinases [2] and 250 to 500 nM at RAF kinases [3]. Besides, the IC50 in assay [4] was less than 250 nM.

`COc1cc(NC(=O)Nc2cccc(Sc3ncnc4cc(OC)c(OC)cc34)c2)cc(C(F)(F)F)c1` [Ex 115, 1-(3-(6,7-dimethoxyquinazolin-4-ylthio)phenyl)-3-(3-methoxy-5-(trifluoromethyl)phenyl)urea]: the figures for the Kd on RAF kinases [1], on RAF kinases [2] and on RAF kinases [3] were 500 to 1000 nM, 250 to 500 nM and 250 to 500 nM, respectively. The IC50 in assay [4] is more than 1000 nM. Besides, the EC50 in the assay with A375 cells was more than 1000 nM.

For the compound `COc1cc2ncnc(Sc3cccc(NC(=O)Nc4ccc(C(F)(F)F)cc4)c3)c2cc1OC` [Ex 184, 1-(3-(6,7-dimethoxyquinazolin-4-ylthio)phenyl)-3-(4-(trifluoromethyl)phenyl)urea], the Kd on RAF kinases [1] lay within 500 to 1000 nM; at RAF kinases [2], 250 to 500 nM; at RAF kinases [3], 250 to 500 nM. For the same compound, the IC50 in assay [4] fell in the range of 250 to 500 nM. Besides, the concentration for a half-maximal effect (EC50) in the assay with A375 cells lay in the range of 500 to 1000 nM.

Regarding `COc1cc2ncnc(Oc3cccc(NC(=O)Nc4ccc(C(F)(F)F)c(F)c4)c3)c2cc1OC` [Ex 150, 1-(3-(6,7-dimethoxyquinazolin-4-yloxy)phenyl)-3-(3-fluoro-4-(trifluoromethyl)phenyl)urea], the Kd on RAF kinases [1] was in the range of 500 to 1000 nM; at RAF kinases [2], 500 to 1000 nM; at RAF kinases [3], 250 to 500 nM. Further, in assay [4], the IC50 is more than 1000 nM. Besides, the EC50 in the assay on A375 cells was more than 1000 nM.

Take `COCCOc1cc2ncnc(Oc3cccc(NC(=O)Nc4ccc(C(F)(F)F)c(F)c4)c3)c2cc1OC` [Ex 222, 1-(3-fluoro-4-(trifluoromethyl)phenyl)-3-(3-(6-methoxy-7-(2-methoxyethoxy)quinazolin-4-yloxy)phenyl)urea]: the Kd at RAF kinases [1] fell in the range of 500 to 1000 nM; at RAF kinases [2], 250 to 500 nM; on RAF kinases [3] it was 250 to 500 nM. For the same compound, the IC50 in assay [4] is more than 1000 nM. Moreover, the EC50 with A375 cells was more than 1000 nM.

For the compound `COc1cc2ncnc(Oc3cccc(NC(=O)Nc4cc(C5(C(F)(F)F)CC5)nn4-c4ccccc4)c3)c2cc1OC` [Ex 137, 1-(3-(6,7-dimethoxyquinazolin-4-yloxy)phenyl)-3-(1-phenyl-3-(1-(trifluoromethyl)cyclopropyl)-1H-pyrazol-5-yl)urea], the Kd at RAF kinases [1] was more than 1000 nM; at RAF kinases [2], more than 1000 nM; at RAF kinases [3], 500 to 1000 nM. The IC50 in assay [4] is less than 250 nM. Moreover, the EC50 in the assay on A375 cells lay in the range of 500 to 1000 nM.

On to `COc1cc(NC(=O)Nc2cccc(Oc3ncnc4cc(OC)c(OC)cc34)c2)cc(C(F)(F)F)c1` [Ex 116, 1-(3-(6,7-dimethoxyquinazolin-4-yloxy)phenyl)-3-(3-methoxy-5-(trifluoromethyl)phenyl)urea], for which the Kd at RAF kinases [1] fell in the range of 500 to 1000 nM; on RAF kinases [2], 250 to 500 nM; on RAF kinases [3], 250 to 500 nM. For the same compound, the IC50 in assay [4] was more than 1000 nM. Also, the 50% effective concentration (EC50) with A375 cells was more than 1000 nM.

For the compound `CCOC(C)(C)c1cc(NC(=O)Nc2cccc(Sc3ncnc4cc(OC)c(OC)cc34)c2)n(-c2ccccc2)n1` [Ex 197, 1-[3-(6,7-dimethoxyquinazolin-4-ylthio)phenyl]-3-[3-(2-ethoxypropan-2-yl)-1-phenyl-1H-pyrazol-5-yl]urea], the Kd on RAF kinases [1] was more than 1000 nM; on RAF kinases [2], more than 1000 nM; on RAF kinases [3], 250 to 500 nM. Moreover, the half-maximal inhibitory concentration (IC50) in assay [4] fell in the range of 250 to 500 nM. In addition, the EC50 with A375 cells is more than 1000 nM.

As for `COCCOc1cc(NC(=O)Nc2cccc(Oc3ncnc4cc(OCCOC)c(OC)cc34)c2)cc(C(F)(F)F)c1` [Ex 117, 1-(3-(6-methoxy-7-(2-methoxyethoxy)quinazolin-4-yloxy)phenyl)-3-(3-(2-methoxyethoxy)-5-(trifluoromethyl)phenyl)urea], the Kd on RAF kinases [1] fell in the range of 500 to 1000 nM; at RAF kinases [2] it was 250 to 500 nM; at RAF kinases [3], 250 to 500 nM. Moreover, the IC50 in assay [4] is more than 1000 nM. Besides, the EC50 in the assay on A375 cells was more than 1000 nM.

As to `COCCOc1cc2ncnc(Oc3cccc(NC(=O)Nc4cc(C(F)(F)F)nn4-c4ccccc4)c3)c2cc1OC` [Ex 221, 1-{3-[6-methoxy-7-(2-methoxyethoxy)quinazolin-4-yloxy]phenyl}-3-[1-phenyl-3-(trifluoromethyl)-1H-pyrazol-5-yl]urea], the Kd on RAF kinases [1] was more than 1000 nM; at RAF kinases [2], more than 1000 nM; on RAF kinases [3], 250 to 500 nM. Also, the IC50 in assay [4] lay in the range of 250 to 500 nM. Further, the EC50 in the assay with A375 cells lay within 500 to 1000 nM.

`COCCOc1cc2ncnc(Oc3cccc(NC(=O)Nc4cc(C(C)(F)F)no4)c3)c2cc1OC` [Ex 211, 1-(3-(1,1-difluoroethyl)isoxazol-5-yl)-3-(3-(6-methoxy-7-(2-methoxyethoxy)quinazolin-4-yloxy)phenyl)urea]: the Kd on RAF kinases [1] lay within 500 to 1000 nM; on RAF kinases [2] it was 250 to 500 nM; at RAF kinases [3], 250 to 500 nM. Moreover, in assay [4], the IC50 was more than 1000 nM. Also, in the assay with A375 cells, the EC50 is more than 1000 nM.

Turning to `CCOc1cc2c(Oc3cccc(NC(=O)Nc4cc(C(F)(F)F)nn4-c4ccccc4)c3)ncnc2cc1OC` [Ex 391, 1-(3-(6-ethoxy-7-methoxyquinazolin-4-yloxy)phenyl)-3-(1-phenyl-3-(trifluoromethyl)-1H-pyrazol-5-yl)urea], the Kd on RAF kinases [1] is 250 to 500 nM; at RAF kinases [2], 250 to 500 nM; at RAF kinases [3], less than 250 nM. The IC50 in assay [4] was less than 250 nM. The EC50 with A375 cells was less than 250 nM.

In the case of `COc1cc2c(Sc3cccc(NC(=O)Nc4ccc(OC)c(C(F)(F)F)c4)c3)ncnc2cc1OCCN1CCOCC1` [Ex 249, 1-(4-methoxy-3-(trifluoromethyl)phenyl)-3-(3-(6-methoxy-7-(2-morpholinoethoxy)quinazolin-4-ylthio)phenyl)urea], the figures for the Kd at RAF kinases [1], on RAF kinases [2] and at RAF kinases [3] were 500 to 1000 nM, 500 to 1000 nM and 250 to 500 nM, respectively. In addition, the IC50 in assay [4] fell in the range of 500 to 1000 nM. In addition, the EC50 with A375 cells was more than 1000 nM.

`COc1cc2ncnc(Oc3cccc(NC(=O)Nc4cc(C(C)(C)C#N)no4)c3)c2cc1OC` [Ex 125, 1-(3-(2-cyanopropan-2-yl)isoxazol-5-yl)-3-(3-(6,7-dimethoxyquinazolin-4-yloxy)phenyl)urea]: the Kd on RAF kinases [1] is 250 to 500 nM; at RAF kinases [2], 250 to 500 nM; on RAF kinases [3], less than 250 nM. Further, the IC50 in assay [4] lay within 250 to 500 nM. Further, the EC50 in the assay with A375 cells was more than 1000 nM.

For `COCCOc1cc2ncnc(Sc3cccc(NC(=O)Nc4cc(C(F)(F)F)nn4-c4ccc(F)cc4)c3)c2cc1OC` [Ex 242, 1-[1-(4-fluorophenyl)-3-(trifluoromethyl)-1H-pyrazol-5-yl]-3-{3-[6-methoxy-7-(2-methoxyethoxy)quinazolin-4-ylthio]phenyl}urea], the Kd at RAF kinases [1], on RAF kinases [2] and on RAF kinases [3] was more than 1000 nM in each case. Besides, in assay [4], the IC50 lay within 500 to 1000 nM. Also, the EC50 with A375 cells was more than 1000 nM.

As for `CCOc1cc2ncnc(Sc3cccc(NC(=O)Nc4cc(C(C)(C)C)on4)c3)c2cc1OC` [Ex 50, 1-(5-tert-butylisoxazol-3-yl)-3-[3-(7-ethoxy-6-methoxyquinazolin-4-ylthio)phenyl]urea], the Kd at RAF kinases [1] is 500 to 1000 nM; at RAF kinases [2], 250 to 500 nM; at RAF kinases [3] it was 250 to 500 nM. Besides, the IC50 in assay [4] fell in the range of 250 to 500 nM. Also, the EC50 in the assay on A375 cells is more than 1000 nM.

With `COc1cc2ncnc(Oc3cccc(NC(=O)Nc4cc(C5CCOCC5)no4)c3)c2cc1OC` [Ex 123, 1-(3-(6,7-dimethoxyquinazolin-4-yloxy)phenyl)-3-(3-(tetrahydro-2H-pyran-4-yl)isoxazol-5-yl)urea], the results for the Kd on RAF kinases [2] and at RAF kinases [3] were 500 to 1000 nM and 250 to 500 nM, respectively. For the same compound, the IC50 in assay [4] is more than 1000 nM. For the same compound, the EC50 with A375 cells is more than 1000 nM.

Regarding `COc1cc2ncnc(Oc3cccc(NC(=O)Nc4cc(C5CCCC5)no4)c3)c2cc1OC` [Ex 163, 1-(3-cyclopentylisoxazol-5-yl)-3-(3-(6,7-dimethoxyquinazolin-4-yloxy)phenyl)urea], the Kd at RAF kinases [2] was in the range of 500 to 1000 nM; on RAF kinases [3] it was 250 to 500 nM. The IC50 in assay [4] is more than 1000 nM. For the same compound, the EC50 with A375 cells is more than 1000 nM.

Consider `COc1cc2ncnc(Oc3cccc(NC(=O)Nc4cc(Cl)cc(C(F)(F)F)c4)c3)c2cc1OC` [Ex 140, 1-(3-chloro-5-(trifluoromethyl)phenyl)-3-(3-(6,7-dimethoxyquinazolin-4-yloxy)phenyl)urea], for which the Kd on RAF kinases [2] and on RAF kinases [3] was 500 to 1000 nM throughout. Besides, in assay [4], the IC50 is more than 1000 nM. For the same compound, the EC50 in the assay with A375 cells was more than 1000 nM.

Turning to `COCCOc1cc2ncnc(Oc3cccc(NC(=O)Nc4cc(C(C)(C)C)nn4-c4ccccc4)c3)c2cc1OC` [Ex 210, 1-(3-tert-butyl-1-phenyl-1H-pyrazol-5-yl)-3-(3-(6-methoxy-7-(2-methoxyethoxy)quinazolin-4-yloxy)phenyl)urea], the Kd at RAF kinases [1], on RAF kinases [2] and on RAF kinases [3] was more than 1000 nM in each case. Besides, the IC50 in assay [4] was less than 250 nM.

`COc1cc2ncnc(Sc3cccc(NC(=O)Nc4ccc(C(F)(F)F)c(F)c4)c3)c2cc1OC` [Ex 188, 1-(3-(6,7-dimethoxyquinazolin-4-ylthio)phenyl)-3-(3-fluoro-4-(trifluoromethyl)phenyl)urea]: the Kd on RAF kinases [2] lay in the range of 500 to 1000 nM; at RAF kinases [3], 250 to 500 nM. In addition, in assay [4], the IC50 is more than 1000 nM. For the same compound, the EC50 in the assay on A375 cells was more than 1000 nM.

With `COCCOc1cc(NC(=O)Nc2cccc(Oc3ncnc4cc(OC)c(OC)cc34)c2)cc(C(F)(F)F)c1` [Ex 129, 1-(3-(6,7-dimethoxyquinazolin-4-yloxy)phenyl)-3-(3-(2-methoxyethoxy)-5-(trifluoromethyl)phenyl)urea], the Kd at RAF kinases [2] and on RAF kinases [3] was 250 to 500 nM throughout. The IC50 in assay [4] is more than 1000 nM. In addition, the EC50 in the assay with A375 cells was more than 1000 nM.
